Patent US9708307B2, “Heterocyclic acetamide compound” (ASTELLAS PHARMA INC., priority 2013, dated 2017)

What was measured:
[1] = target: T1, dopamine D1 receptor (Homo sapiens, UniProt P21728); test: Evaluation of positive allosteric modulating activity: leftward shift of dopamine dose-response curve (cAMP) in CHO cells stably expressing human dopamine D1 receptor; format: cell-based; settings: extrapolated by linear function from dopamine EC50 at each test drug concentration
T1 construct: expressed in transfected cells
T1 sequence (P21728 whole entry): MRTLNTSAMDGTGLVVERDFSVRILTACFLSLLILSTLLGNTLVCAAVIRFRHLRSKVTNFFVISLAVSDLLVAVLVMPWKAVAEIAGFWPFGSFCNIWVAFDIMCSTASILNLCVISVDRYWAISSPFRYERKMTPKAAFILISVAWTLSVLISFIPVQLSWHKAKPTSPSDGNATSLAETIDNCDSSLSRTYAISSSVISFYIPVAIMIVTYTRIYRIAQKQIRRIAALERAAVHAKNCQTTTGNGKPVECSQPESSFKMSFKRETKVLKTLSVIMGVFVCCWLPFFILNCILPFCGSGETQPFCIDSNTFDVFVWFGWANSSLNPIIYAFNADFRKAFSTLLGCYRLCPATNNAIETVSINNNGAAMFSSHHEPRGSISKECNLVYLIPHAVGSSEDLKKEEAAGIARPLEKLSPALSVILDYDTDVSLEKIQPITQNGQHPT
Protocol: The composition of a buffer used in Test Example 1 is as follows.
Buffer for assay=αMEM containing 1 μM IBMX.
Buffer for dilution=αMEM containing 1 μM IBMX and 0.8 mM ascorbic acid.
The positive allosteric modulating activity of the compound of the present invention was evaluated according to the ratio of the leftward shift in a dopamine dose-response curve.
The leftward shift means that a dose-response curve of dopamine, in which the logarithm of a dose is on the horizontal axis (X-axis) and a response (cAMP concentration in this test) is on the vertical axis (Y-axis), shifts in parallel in the negative direction of the X-axis by the administration of a positive allosteric modulator.
The coding sequences of a dopamine D1 receptor in a human (Accession No.: NM_000794.3) were amplified by PCR and subcloned into a pEF-BOS vector. The resulting construct was transfected to CHO (-dhrf) cells (ATCC No.: CRL-9096) using Lipofectamine 2000 (Invitrogen Inc.). The clones stably transfected were obtained by selection using 100 nM MTX. The obtained cell clones were maintained in αMEM containing 10% FBS, 1 mg/mL penicillin, and 1 U/streptomycin.
Dose-Response Curve of Dopamine Using test drug was drawn on the basis of the following experiments.
A buffer for assay of a test drug was serially diluted (concentrations 0.48 μM to 40 μM, 3-fold dilutions). The serially diluted solutions of the test drug were dispensed in each portion of 2.5 μL to black 384-well plates (Becton Dickinson, Inc.).
CHO cells stably expressing a dopamine D receptor of a human were seeded in each portion of 5 μL in each well at a density of 5000 cells/well, centrifuged in a centrifuge for a plate (05PR-22, Hitachi Co., Ltd., 800 rpm), and then allowed to stand for 10 minutes.
Serially diluted solutions of dopamine were prepared from a DMSO solution of dopamine (Sigma Co.) with a buffer for dilutions (concentrations 0.018 μM to 13.2 μM, 3-fold dilutions), and the serially diluted solutions of dopamine were dispensed in portions of 2.5 μL to each well of a plate.
The plate was stirred using a plate shaker (Sanko Junyaku (mx-5)) and then allowed to stand at room temperature for 20 minutes (final concentration: test drug 0 μM to 10 μM, dopamine 0 μM to 3.3 μM, 3-fold dilutions).
cAMP was quantified using a cAMP femto 2 kit (Sceti Medical Labo K. K.) by the method described in the materials appended in the kit. A kit reagent cAMP-d2 solution and a kit reagent Anti cAMP-Cryptate solution were added in each portion of 5 μL to each well of the above-described plate, and the reaction was stopped. After incubating the plate at room temperature for 1 hour, the fluorescent intensity was measured (an excitation wavelength of 320 nm and a fluorescent wavelength of 665 nm) using a plate reader (2103 Multilabel Reader (registered trademark EnVision), PerkinElmer, Inc.).
As a control group, a well without addition of dopamine was taken as 0% and a well with a dopamine final concentration of 3.3 μM was taken as 100%.
The dose-response curve of dopamine was drawn on the basis of the experiment carried out in the same manner as in (1) without the addition of a test drug.
In order to quantitatively compare the activity of the test drug, the activity was evaluated by EC50 2-fold potentiation.
In the present specification, “EC50 2-fold potentiation” is the test drug concentrations that enhanced the EC50 two-fold in the dose-response curve (2) of dopamine.
From the dose-response curve (1) of dopamine in the presence of the test drug at each concentration, the EC50 at the test drug concentration was obtained. From the correlation between the concentration of the test drug and the EC50, EC50 2-fold potentiation was calculated by extrapolation by a linear function (straight line).
Further, the EC50 value was calculated from the dose-response curves (1) and (2) of dopamine, using non-linear regression analysis. […]

[2] = test system: ddY male mice; test: Y-maze test: improvement effect on cognitive impairment caused by MK-801 (spontaneous alternation behavior); format: in vivo; settings: oral, once, one hour before test, MK-801 0.15 mg/kg i.p. 20 minutes before
Protocol: The improvement effect of the compound of the present invention on cognitive impairment was evaluated using a Y-maze test which is an experiment system of alternation behavior.
As a Y-maze, a maze, in which three tracks having a length of one arm of 40 cm, a height of a wall of 13 cm, a width of a bottom of 3 cm, and a width of a top of 10 cm are each joined in the Y shape at a degree of 120, was used. […]
The above-described mice were allowed to explore freely for 8 minutes after being placed at an end of one track in the Y-maze, and the track and the sequence in which the mice entered were recorded. The number of times the mice entered within the measurement time was counted, and taken as a total entry number. Among these, a combination in which the mice successively entered different three tracks (for example, when taking three arms as a, b, and c, respectively, a case where the order of the arm that entered was “abccbacab” was counted as 4, inclusive of overlapping) was considered as a spontaneous alternation behavior number. The spontaneous alternation behavior rate was calculated by the following calculation and used as an index for a spontaneous alternation behavior: Spontaneous alternation behavior rate=spontaneous alternation behavior number/(total number of entries−2)×100 […]
The measured values were expressed in average values±standard errors for each group. […]

| Data 1: EC50 2-fold potentiation (test drug concentration that enhanced the dopamine EC50 two-fold) [1] | SMILES | Data 2: effective concentration (improved the spontaneous alternation behavior) [2] |
| --- | --- | --- |
| 460 nM | CN(Cc1nc2cc(C(F)(F)F)ccc2[nH]1)C(=O)Cn1c(=O)oc2ccc(Cl)cc21.Cl [Example 1, 2-(5-chloro-2-oxo-1,3-benzoxazol-3 (2H)-yl)-N-methyl-N-{[5-(trifluoromethyl)-1H-benzimidazol-2-yl]methyl}acetamide hydrochloride] | 0.1 mg/kg |
| 100 nM | CN(Cc1nc2cc(Cl)c(Cl)cc2n1CCO)C(=O)Cn1c(=O)oc2ccc(Cl)cc21.Cl [Example 7, 2-(5-chloro-2-oxo-1,3-benzoxazol-3 (2H)-yl)-N-{[5,6-dichloro-1-(2-hydroxyethyl)-1H-benzimidazol-2-yl]methyl}-N-methylacetamide hydrochloride] |  |
| 1000 nM | CN(Cc1nc2cc(Cl)ccc2[nH]1)C(=O)Cn1c(=O)oc2ccc(Cl)cc21.Cl [Example 12] |  |
| 1700 nM | CN(Cc1nc2cc(Cl)c(F)cc2[nH]1)C(=O)Cn1c(=O)oc2ccc(Cl)cc21.Cl [Example 14] |  |
| 740 nM | COc1cc2[nH]c(CN(C)C(=O)Cn3c(=O)oc4ccc(Cl)cc43)nc2cc1Br.Cl [Example 15] |  |
| 620 nM | CN(Cc1nc2c(C(F)(F)F)cccc2[nH]1)C(=O)Cn1c(=O)oc2ccc(Cl)cc21.Cl [Example 16] |  |
| 470 nM | CN(Cc1nc2cc(C(F)(F)F)ccc2[nH]1)C(=O)Cn1c(=O)oc2ccc(Cl)c(F)c21 [Example 17] |  |
| 440 nM | CN(Cc1nc2cc(Br)ccc2[nH]1)C(=O)Cn1c(=O)oc2ccc(Cl)cc21 [Example 20] | 1.0 mg/kg |
| 390 nM | CN(Cc1nc2cc(C3CC3)ccc2[nH]1)C(=O)Cn1c(=O)oc2ccc(C(F)(F)F)cc21 [Example 22] |  |
| 450 nM | CN(Cc1nc2cc(Cl)ccc2[nH]1)C(=O)Cn1c(=O)oc2ccc(C(F)(F)F)cc21 [Example 25] |  |
| 370 nM | CN(Cc1nc2cc(Cl)ccc2[nH]1)C(=O)Cn1c(=O)oc2ccc(OC(F)(F)F)cc21 [Example 26] |  |
| 460 nM | CN(Cc1nc2cc(C(F)(F)F)ccc2[nH]1)C(=O)Cn1c(=O)oc2ccc(C(F)(F)F)c(F)c21 [Example 27] |  |
| 270 nM | Cc1cc2nc(CN(C)C(=O)Cn3c(=O)oc4ccc(Cl)cc43)[nH]c2cc1Cl [Example 30] |  |
| 1100 nM | CN(Cc1nc2cc(OC(F)(F)F)ccc2[nH]1)C(=O)Cn1c(=O)oc2ccc(Cl)cc21 [Example 31] |  |
| 990 nM | CN(Cc1nc2c(Cl)cccc2[nH]1)C(=O)Cn1c(=O)oc2ccc(Cl)cc21 [Example 34] |  |
| 300 nM | CN(Cc1nc2cc(Cl)c(Cl)cc2n1CC(C)(C)O)C(=O)Cn1c(=O)oc2ccc(Cl)cc21 [Example 37] |  |
| 400 nM | CN(Cc1nc2c(C(F)(F)F)cccc2[nH]1)C(=O)Cn1c(=O)oc2ccc(C(F)(F)F)cc21 [Example 39] |  |
